Columns and labels:
Test in all cases: combination Emax (second highest fraction inhibited in the dose matrix, 72 h); higher = more inhibition; extreme values may be limits of the assay
[1] = test system: NCI-H2023 (Non-Small Cell Lung Carcinoma)
Outline: (§1)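 Bliss excess equals the observed combination effect minus the expected value EA + EB − EA·EB, where EA and EB are the effects of each agent alone. Combination Emax is the second-highest inhibition within the matrix. Inhibition was scaled from CellTiter-Glo 2.0 luminescence, with 0 set by vehicle wells and 1 by blank wells, after 72 hours of two-drug dosing of cells plated in 1536-well plates.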

[2] = test system: NCI-H2009 (Lung Adenocarcinoma)
Outline: as §1

[3] = test system: MRK-nu-1 (Breast Carcinoma)
Outline: as §1

C32 (Melanoma) = test system: C32 (Melanoma)
Outline: as §1

[4] = test system: ATN-1 (T-Lymphoblastic Leukemia)
Outline: as §1

[5] = test system: L-363 (Plasma Cell Myeloma)
Outline: as §1

[6] = test system: JURL-MK1 (Chronic Myelogenous Leukemia)
Outline: as §1

[7] = test system: NCI-H1048 (Small Cell Lung Carcinoma)
Outline: as §1

[8] = test system: NTERA-2-cl-D1 (Other Solid Carcinomas)
Outline: as §1

GCIY (Gastric Carcinoma) = test system: GCIY (Gastric Carcinoma)
Outline: as §1

[9] = test system: HT-3 (Cervical Carcinoma)
Outline: as §1

[10] = test system: C2BBe1 (Colorectal Carcinoma)
Outline: as §1

DK-MG (Glioblastoma) = test system: DK-MG (Glioblastoma)
Outline: as §1

[11] = test system: RS4-11 (B-Lymphoblastic Leukemia)
Outline: as §1

[12] = test system: JJN-3 (Plasma Cell Myeloma)
Outline: as §1

[13] = test system: OCI-M1 (Acute Myeloid Leukemia)
Outline: as §1

[14] = test system: NCI-H1975 (Lung Adenocarcinoma)
Outline: as §1

[15] = test system: IGROV-1 (Ovarian Carcinoma)
Outline: as §1

[16] = test system: MDA-MB-175-VII (Breast Carcinoma)
Outline: as §1

[17] = test system: TK (B-Cell Non-Hodgkin's Lymphoma)
Outline: as §1

SMILES	combination Emax [1]	combination Emax [2]	combination Emax [3]	combination Emax (C32 (Melanoma))	combination Emax [4]	combination Emax [5]	combination Emax [6]	combination Emax [7]	combination Emax [8]	combination Emax (GCIY (Gastric Carcinoma))	combination Emax [9]	combination Emax [10]	combination Emax (DK-MG (Glioblastoma))	combination Emax [11]	combination Emax [12]	combination Emax [13]	combination Emax [14]	combination Emax [15]	combination Emax [16]	combination Emax [17]
CC1(C)CCC(CN2CCN(c3ccc(C(=O)NS(=O)(=O)c4ccc(NCC5CCOCC5)c([N+](=O)[O-])c4)c(Oc4cnc5[nH]ccc5c4)c3)CC2)=C(c2ccc(Cl)cc2)C1 [Venetoclax] + C[C@@H]1COCCN1C2=NC(=NC(=C2)C3(CC3)[S@](=N)(=O)C)C4=C5C=CNC5=NC=C4 [AZD6738] (first compound max 1 µM, 7x7, partner max 10 µM)	0.729	0.415	0.665	0.666	0.973	0.897	1	0.7	0.881	0.879	0.452	0.461	0.336	1	0.791	1	0.433	0.759	0.251	1
CCN(CCO)CCCOc1ccc2c(Nc3cc(CC(=O)Nc4cccc(F)c4)[nH]n3)ncnc2c1 [AZD2811] + C=CCn1c(=O)c2cnc(Nc3ccc(N4CCN(C)CC4)cc3)nc2n1-c1cccc(C(C)(C)O)n1 [AZD1775] (first compound max 1 µM, partner max 1 µM)	0.574	0.749	0.373	0.359	1	0.931	0.995	0.859	0.845	0.41	0.241	0.274	0.285	0.965	0.694	0.922	0.364	0.755	0.205	0.901
Cc1c2c(nn1C)CSCc1cc(n(C)n1)CSc1cc(c3ccccc3c1)OCCCc1c(C(=O)O)n(C)c3c-2c(Cl)ccc13 [AZD5991] + C[C@@H]1COCCN1C2=NC(=NC(=C2)C3(CC3)[S@](=N)(=O)C)C4=C5C=CNC5=NC=C4 [AZD6738] (first compound max 1 µM, 7x7, partner max 10 µM)	0.814	0.466	1	0.756	1	1	1	1	0.928	0.808	0.907	0.452	0.707	1	1	0.973	0.664	0.852	0.259	0.895
CC1(C)CCC(CN2CCN(c3ccc(C(=O)NS(=O)(=O)c4ccc(NCC5CCOCC5)c([N+](=O)[O-])c4)c(Oc4cnc5[nH]ccc5c4)c3)CC2)=C(c2ccc(Cl)cc2)C1 [Venetoclax] + COc1cc(Nc2ncc3c(n2)-c2ccc(Cl)cc2C(c2c(F)cccc2OC)=NC3)ccc1C(=O)O [Alisertib] (first compound max 1 µM, 7x7, partner max 10 µM)	0.477	0.5	0.628	0.487	0.901	0.772	0.964	0.948	0.954	0.94	0.0652	0.516	0.443	1	0.939	0.815	0.469	0.789	0.238	1
CN(C)CCCOc1ccc(-c2ccc3ncc4c(c3c2)n(C2CCOCC2)c(=O)n4C)cn1 [AZD0156] + C=CCn1c(=O)c2cnc(Nc3ccc(N4CCN(C)CC4)cc3)nc2n1-c1cccc(C(C)(C)O)n1 [AZD1775] (first compound max 1 µM, partner max 1 µM)	0.633	0.557	0.246	0.442	1	0.985	0.989	0.664	0.376	0.63	0.331	0.209	0.331	0.881	0.661	0.869	0.356	0.769	0.299	0.945
CN(CCO)CC[C@H](CSc1ccccc1)Nc1ccc(S(=O)(=O)NC(=O)c2ccc(N3CCC([C@@H](O)c4ccccc4-c4ccc(Cl)cc4)CC3)cc2)cc1S(=O)(=O)C(F)(F)F [AZD4320] + C1CN(CCC1(C(=O)N[C@@H](CCO)C2=CC=C(C=C2)Cl)N)C3=NC=NC4=C3C=CN4 [Capivasertib] (first compound max 1 µM, 7x7, partner max 3 µM)	0.264	0.0559	0.3	0.257	0.715	0.376	0.87	0.86	0.409	0.576	0.0692	0.209	0.255	1	0.383	0.984	0.558	0.767	0.799	0.97
Cc1c2c(nn1C)CSCc1cc(n(C)n1)CSc1cc(c3ccccc3c1)OCCCc1c(C(=O)O)n(C)c3c-2c(Cl)ccc13 [AZD5991] + C[C@@H](Nc1cc(F)cc(F)c1)c1cc(C(=O)N(C)C)cc2c(=O)cc(N3CCOCC3)oc12 [AZD8186] (first compound max 1 µM, 7x7, partner max 3 µM)	0.377	0.165	1	0.251	0.945	1	0.629	0.965	0.682	0.565	0.482	0.335	0.849	0.591	1	0.0662	0.431	0.8	0.313	0.112
Cn1cnc2c(F)c(Nc3ccc(Br)cc3Cl)c(C(=O)NOCCO)cc21 [Selumetinib] + CC(C)n1c(=O)n(C)c2cnc3cc(F)c(-c4ccc(OCCCN5CCCCC5)nc4)cc3c21 [AZD1390] (first compound max 10 µM, 7x7, partner max 0.3 µM)	0.161	0.405	0.35	0.948	0.172	0.017	0.973	0.101	0.235	0.396	0.105	0.351	0.323	0.0431	0.281	0.749	0.342	0.618	0.451	0.177
NC1(C(=O)N[C@@H](CCO)c2ccc(Cl)cc2)CCN(c2ncnc3[nH]ccc23)CC1 [Capivasertib] + CC(=O)c1c(C)c2cnc(Nc3ccc(N4CCNCC4)cn3)nc2n(C2CCCC2)c1=O [Palbociclib] (first compound max 10 µM, 7x7, partner max 10 µM)	0.402	0.242	0.382	0.413	0.686	0.509	1	0.503	0.294	0.631	0.2	0.314	0.523	0.605	0.298	0.61	0.638	0.86	0.556	0.0563
COc1cccc(OCCCN)c1-c1cc(Nc2cnc(C#N)cn2)n[nH]1 [Prexasertib] + C=CCn1c(=O)c2cnc(Nc3ccc(N4CCN(C)CC4)cc3)nc2n1-c1cccc(C(C)(C)O)n1 [AZD1775] (first compound max 1 µM, partner max 1 µM)	0.853	0.849	0.942	0.721	1	1	1	0.955	0.916	0.911	0.75	0.613	0.387	1	0.985	0.969	0.516	0.788	0.424	0.882
CN(C)CCCOc1ccc(-c2ccc3ncc4c(c3c2)n(C2CCOCC2)c(=O)n4C)cn1 [AZD0156] + CCN(CCO)CCCOc1ccc2c(Nc3cc(CC(=O)Nc4cccc(F)c4)[nH]n3)ncnc2c1 [AZD2811] (first compound max 1 µM, 7x7, partner max 1 µM)	0.252	0.189	0.631	0.14	0.835	0.192	0.554	0.547	0.469	0.378	0.0658	0.114	0.204	0.979	0.404	0.222	0.3	0.539	0.208	0.273
CC1(C)CCC(CN2CCN(c3ccc(C(=O)NS(=O)(=O)c4ccc(NCC5CCOCC5)c([N+](=O)[O-])c4)c(Oc4cnc5[nH]ccc5c4)c3)CC2)=C(c2ccc(Cl)cc2)C1 [Venetoclax] + CN(C)CCCOc1ccc(-c2ccc3ncc4c(c3c2)n(C2CCOCC2)c(=O)n4C)cn1 [AZD0156] (first compound max 1 µM, 7x7, partner max 1 µM)	0.338	0.273	0.132	0.413	0.402	0.867	0.262	0.178	0.755	0.403	0.145	0.253	0.292	1	0.235	0.19	0.216	0.535	0.174	0.969

Reference: the supplement of paper PMC11061612
